# According to patent US20220380357A1, “TETRAHYDROISOQUINOLINE COMPOUNDS” (ALLINKY BIOPHARMA, priority 2019, published 2022):
# Where two headings read alike, the source gives them in different places.
# How the values were obtained:
# Assay type in all cases: cell-based
# [1] = system: H358. non-small cell lung cancer line bearing KRas^G12C oncogenic mutation; assay: Antiproliferative MTS assay, H358 cells; details: compounds 1-23, 47-52 and Reference Example 1 median of experiments, 24-46 estimations and/or preliminary results, read-out: IC50 values: cell proliferation inhibition, H358
# Experimental: Cell line #2: H358. non-small cell lung cancer line bearing KRas^G12C oncogenic mutation
# (§1) Cell lines were cultured in DMEM or RPMI-1640 supplemented with FBS 10%. In order to assess the antiproliferative effect of compounds, cells were seeded at a density of 1.8×10^3, 6.2×10^3, 7.8×10^3, 21×10^3 and 2×10^3 cells/cm^2, respectively, in tissue culture microplates and were incubated in humidified atmosphere at 5% CO2. 24 h later, compounds dissolved in DMSO 100% were added for different final concentrations ranging between 0.1 and 50 μM for a final DMSO concentration of 0.5% and the plates were incubated for another 72 h. After incubation, proliferation was quantified using CellTiter 96® Aqueous Non-Radioactive Cell Proliferation Assay-MTS (Promega #G5421) following manufacturer instructions. Amount of 490 nm absorbance is directly proportional to the number of living cells. Absorbance was recorded with a BMG Fluostar Optima Microplate Reader and normalized to control with vehicle.
# [2] = system: PANC-1. epithelioid carcinoma of the pancreas cell line bearing KRas^G12D oncogenic mutation; assay: Antiproliferative MTS assay, PANC-1 cells; details: compounds 1-23 and 47-52 median of experiments, 24-46 estimations and/or preliminary results, read-out: IC50 values: cell proliferation inhibition, Panc-1
# Experimental: Cell line #3: PANC-1. epithelioid carcinoma of the pancreas cell line bearing KRas^G12D oncogenic mutation
# as §1
# [3] = system: RPMI. myeloma cell line bearing KRas^G12A oncogenic mutation; assay: Antiproliferative MTS assay, RPMI cells; details: 72 h, compounds 1-23 and 47-52 median of experiments, 24-46 estimations and/or preliminary results, read-out: IC50 values: cell proliferation inhibition, RPMI
# Experimental: Cell line #4: RPMI. myeloma cell line bearing KRas^G12A oncogenic mutation
# as §1
# [4] = system: A549. Lung carcinoma cell line bearing KRas^G12S oncogenic mutation; assay: Antiproliferative MTS assay, A549 cells; details: compounds 1-23 and 47-52 median of experiments, 24-46 estimations and/or preliminary results, read-out: IC50 values: cell proliferation inhibition, A549
# Experimental: Cell line #1: A549. Lung carcinoma cell line bearing KRas^G12S oncogenic mutation
# as §1
SMILES,"IC50 ([1]; Homo sapiens, NCI-H358, 72 h) [nM]","IC50 ([2]; Homo sapiens, PANC-1, 72 h) [nM]",IC50 [3] [nM],"IC50 ([4]; Homo sapiens, A549, 72 h) [nM]",IC50 ([1]; 72 h) [nM],IC50 ([2]; 72 h) [nM],IC50 ([4]; 72 h) [nM]
CCNC(=O)N1CCc2cc(OC)c(OCCc3ccc(N)c(OC)c3)cc2C1c1ccc(Cl)cc1C (stereo not shown) [Compound 14],,,400,1600,700,500,
COc1ccc(CCOc2cc3c(cc2OC)CCN(C(=O)NCc2cocn2)C3c2ccc(F)cc2C)cc1N (stereo not shown) [Compound 17],500,400,200,1000,,,
COc1ccc(CCOc2cc3c(cc2OC)CCN(C(=O)NCc2ccon2)C3c2ccc(C)cc2C)cc1N (stereo not shown) [Compound 19],500,300,500,1500,,,
COc1ccc(CCOc2cc3c(cc2OC)CCN(C(=O)NCc2ccon2)C3c2ccc(C(F)(F)F)cc2C)cc1N (stereo not shown) [Compound 20],400,400,200,1000,,,
COc1ccc(CCOc2cc3c(cc2OC)CCN(C(=O)NCc2ccon2)C3c2ccc(F)cc2C)cc1N (stereo not shown) [Compound 22],700,600,500,> 2000,,,
COc1ccc(CCOc2cc3c(cc2OC)CCN(C(=O)NCC(F)(F)F)C3c2ccc(C(F)(F)F)cc2C)cc1N (stereo not shown) [Compound 25],600,500,300,> 2000,,,
COc1ccc(C2c3cc(OCCc4ccc(OC)c(N)c4)c(OC)cc3CCN2C(=O)NCC(F)(F)F)c(C)c1 (stereo not shown) [Compound 26],400,500,200,1000,,,
CCNC(=O)N1CCc2cc(OC)c(OCCc3ccc(N)c(OC)c3)cc2C1c1ccc(C(F)(F)F)cc1C (stereo not shown) [Compound 29],500,400,200,1500,,,
CCNC(=O)N1CCc2cc(OC)c(OCCc3ccc(N)c(OC)c3)cc2C1c1ccc(OC)cc1C (stereo not shown) [Compound 30],400,500,300,1000,,,
CCNC(=O)N1CCc2cc(OC)c(OCCc3ccc(N)c(OC)c3)cc2C1c1ccc(F)cc1C (stereo not shown) [Compound 31],500,400,100,> 2000,,,
CCNC(=O)N1CCc2cc(OC)c(OCCc3ccc(N)c(OC)c3)cc2C1c1ccc(Cl)cc1C (stereo not shown) [Compound 32],,,100,,300,200,1000
COc1cc(CCOc2cc3c(cc2OC)CCN(C(=O)NCc2cocn2)C3c2ccc(C)cc2C)ccc1N (stereo not shown) [Compound 33],800,600,700,> 2000,,,
COc1cc(CCOc2cc3c(cc2OC)CCN(C(=O)NCc2cocn2)C3c2ccc(C(F)(F)F)cc2C)ccc1N (stereo not shown) [Compound 34],500,400,100,1200,,,
COc1ccc(C2c3cc(OCCc4ccc(N)c(OC)c4)c(OC)cc3CCN2C(=O)NCc2cocn2)c(C)c1 (stereo not shown) [Compound 35],400,400,300,1000,,,
COc1cc(CCOc2cc3c(cc2OC)CCN(C(=O)NCc2cocn2)C3c2ccc(F)cc2C)ccc1N (stereo not shown) [Compound 36],900,700,500,1700,,,
COc1cc(CCOc2cc3c(cc2OC)CCN(C(=O)NCc2cocn2)C3c2ccc(Cl)cc2C)ccc1N (stereo not shown) [Compound 37],400,400,100,1500,,,
COc1cc(CCOc2cc3c(cc2OC)CCN(C(=O)NCc2ccon2)C3c2ccc(C)cc2C)ccc1N (stereo not shown) [Compound 38],500,400,200,1500,,,
COc1cc(CCOc2cc3c(cc2OC)CCN(C(=O)NCc2ccon2)C3c2ccc(C(F)(F)F)cc2C)ccc1N (stereo not shown) [Compound 39],600,600,300,> 2000,,,
COc1ccc(C2c3cc(OCCc4ccc(N)c(OC)c4)c(OC)cc3CCN2C(=O)NCc2ccon2)c(C)c1 (stereo not shown) [Compound 40],300,300,100,1000,,,
COc1cc(CCOc2cc3c(cc2OC)CCN(C(=O)NCc2ccon2)C3c2ccc(F)cc2C)ccc1N (stereo not shown) [Compound 41],900,700,900,> 2000,,,
COc1cc(CCOc2cc3c(cc2OC)CCN(C(=O)NCc2ccon2)C3c2ccc(Cl)cc2C)ccc1N (stereo not shown) [Compound 42],300,300,100,1000,,,
"CCNC(=O)N1CCc2cc(OC)c(OCCc3ccc(OC)c(N)c3)cc2C1c1ccc(C(=O)OC)cc1C (stereo not shown) [Reference Example 1, reference compound]",300,,,,,,

# The next lines start with the values.
"IC50 ([1]; Homo sapiens, NCI-H358, 72 h) [nM]","IC50 ([2]; Homo sapiens, PANC-1, 72 h) [nM]",IC50 [3] [nM],"IC50 ([4]; Homo sapiens, A549, 72 h) [nM]",IC50 ([1]; 72 h) [nM],IC50 ([2]; 72 h) [nM],IC50 ([4]; 72 h) [nM],SMILES
200,100,100,900,,,,CCNC(=O)N1CCc2cc(OC)c(OCCc3ccc(OC)c(N)c3)cc2C1c1ccc(F)cc1C (stereo not shown) [Compound 12]
300,300,100,1000,,,,COc1ccc(CCOc2cc3c(cc2OC)CCN(C(=O)NCc2cocn2)C3c2ccc(C(F)(F)F)cc2C)cc1N (stereo not shown) [Compound 15]
300,200,100,1000,,,,COc1ccc(C2c3cc(OCCc4ccc(OC)c(N)c4)c(OC)cc3CCN2C(=O)NCc2cocn2)c(C)c1 (stereo not shown) [Compound 16]
300,200,100,1000,,,,COc1ccc(CCOc2cc3c(cc2OC)CCN(C(=O)NCc2cocn2)C3c2ccc(Cl)cc2C)cc1N (stereo not shown) [Compound 18]
200,200,100,900,,,,COc1ccc(C2c3cc(OCCc4ccc(OC)c(N)c4)c(OC)cc3CCN2C(=O)NCc2ccon2)c(C)c1 (stereo not shown) [Compound 21]
100,100,100,700,,,,COc1ccc(CCOc2cc3c(cc2OC)CCN(C(=O)NCc2ccon2)C3c2ccc(Cl)cc2C)cc1N (stereo not shown) [Compound 23]
200,200,100,1000,,,,COc1ccc(CCOc2cc3c(cc2OC)CCN(C(=O)NCC(F)(F)F)C3c2ccc(C)cc2C)cc1N (stereo not shown) [Compound 24]
300,300,100,900,,,,COc1ccc(CCOc2cc3c(cc2OC)CCN(C(=O)NCC(F)(F)F)C3c2ccc(F)cc2C)cc1N (stereo not shown) [Compound 27]
300,200,100,800,,,,COc1ccc(CCOc2cc3c(cc2OC)CCN(C(=O)NCC(F)(F)F)C3c2ccc(Cl)cc2C)cc1N (stereo not shown) [Compound 28]
